{"source": "patent US20250319211A1", "about": "“NEAR IR LUMINESCENCE AND OPTICALLY ADDRESSABLE QUANTUM SENSING AND MAGNETIC IMAGING WITH RADICALOID TETRATHIAFULVALENE TETRATHIOLATES” (The University of Chicago, priority 2022, published 2025)", "key": {"[1]": {"assay": "Photoluminescence quantum yield determination", "format": "physicochemical", "method": "For the photoluminescence spectroscopy, all emission spectra were acquired on a Horiba Scientific PTI QuantaMaster fluorometer. Low temperature emission spectra were recorded by adding samples in 1:1 DCM:toluene into quartz EPR tubes and lowering the tube into an optical dewar filled with liquid N2. Excitation emission matrices were acquired on a Horiba Scientific Fluorolog-3 spectrofluorometer.\nThe samples, sealed in NMR tubes, were individually placed in an integrating sphere (Thorlabs, IS200-4) with a PbSe detector (Thorlabs, PDA20H) on one port and directly excited by an 808 nm diode laser (Thorlabs, M9-808-0150) of 15 W/cm^2 average intensity under 1 kHz square-wave modulation. The detector signal S, with and without a silicon window on the detector port, was recorded with the sample and with a DCM blank. […] The photoluminescence quantum yield is therefore SS,Si/(SD−SS)×( ? 808/ ? λS)×T^−1 where the subscripts S, D and Si respectively denote the sample, DCM blank, and silicon window. R is the wavelength-dependent PbSe detector responsivity, T is the total emission power transmitted by the silicon window, and λS is the average emission wavelength determined by integration of the spectrum. The detector responsivity is linear with wavelength in this spectral range so that ? 808/ ? λS=808/λS. Due to the spectral overlap between the sample emission and the soft absorption edge of silicon, we calculate T explicitly as ∫E(λ)dλ×\nwhere E(λ) is the normalized sample emission spectrum and T(λ) is the T(λ) normalized silicon window transmission spectrum.\nComparative results for the diradical dication PtTTFtt against a conventional near IR dye (IR 26) provide PLQY of 0.09% in oxygenated 1,2-dichloroethane for compound 2 (PtTTFtt) in comparison to 0.05% for IR 26, as illustrated in FIG. 10."}, "[2]": {"assay": "Cell viability assay after 72 hr treatment", "format": "cell-based", "settings": "1% DMSO solution, preliminary", "source_text": "FIG. 21 is a cell viability assay of compound 4 after 72 hr treatment, using 1% DMSO solution in accordance with certain disclosed embodiments."}, "[3]": {"assay": "Reactivity in the presence of small nucleophiles and ubiquitin (preliminary proteomics studies)", "settings": "ubiquitin"}, "[4]": {"assay": "Stability of compound 4 (irradiation, air, serum, buffer, water)", "format": "physicochemical"}, "[5]": {"settings": "1,2-dichloroethane, background statement; cited from earlier work"}, "[6]": {"settings": "1,2-dichloroethane, background statement; cited from earlier work", "remark": "listed apart in the source"}}}
{"compound": "[(Pt{dppe})2TTFtt][BAr^F4]2 [Compound 2]", "values": [{"measurement": "photoluminescence quantum yield (PLQY)", "setting": "[1]; oxygenated 1,2-dichloroethane", "value": 0.09, "unit": "%"}]}
{"compound": "(Pt{1,5-cyclooctadiene})2 tetrathiafulvalene-2,3,6,7 tetrathiolate diradical dication [Compound 4]", "values": [{"measurement": "toxicity", "setting": "[2]", "value": "nontoxic"}, {"measurement": "integrity after exposure to proteins and small nucleophiles", "setting": "[3]", "value": "remains intact"}, {"measurement": "stability to air, fetal bovine serum and phosphate buffer", "setting": "[4]", "value": "demonstrated"}, {"measurement": "persistence of photoluminescence", "setting": "[4]; continuous irradiation", "value": 21, "unit": "h"}, {"measurement": "stability to water and air", "setting": "[4]; crystallized out of 1:2 MeCN:water over 6 months", "value": "remarkable stability"}]}
{"compound": "[(Pt{P(4-CF3Ph)3}2)2TTFtt][BAr^F4]2 [Compound 3]", "values": [{"measurement": "photoluminescence quantum yield (PLQY)", "setting": "[1]; 57 μM, dichloromethane, 298K, anaerobic conditions, highest of compounds 1-3", "value": 0.43, "unit": "%"}]}
{"compound": "ClC1=C(/C=C/c2cc(-c3ccccc3)[s+]c3ccccc23)CCC/C1=C\\C=C1/C=C(c2ccccc2)Sc2ccccc21.[O-][Cl+3]([O-])([O-])[O-]", "note": "[IR 26, 4-(7-(2-phenyl-4H-1-benzothiopyran-4-ylidene)-4-chloro-3,5-trimethylene-1,3,5-heptatrienyl)-2-phenyl-1-benzothiopyrylium perchlorate]", "values": [{"measurement": "emission", "setting": "[5]", "value": "around 1130 nm"}, {"measurement": "photoluminescence quantum yield (PLQY)", "setting": "[1]; oxygenated 1,2-dichloroethane", "value": 0.05, "unit": "%"}, {"measurement": "PLQY", "setting": "[6]", "value": 0.05, "unit": "%"}]}
